Results from PubChem BioAssay (NCI).
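Dose response: 5 concentrations. Exposure: 48 h. Format: 96-well plates. Endpoint: linear interpolation; highest concentration if not reached. At the TGI there is no net growth.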

Tests used:
Assay in all cases: DTP human tumour cell line panel, 48 h
OVCAR-5 ovarian = system: OVCAR-5 ovarian
IGROV1 ovarian = system: IGROV1 ovarian
A549 NSCLC = system: A549 NSCLC
K-562 leukemia = system: K-562 leukemia
RXF 393 renal = system: RXF 393 renal
NCI-H460 lung = system: NCI-H460 lung
786-0 renal = system: 786-0 renal
SW-620 colon = system: SW-620 colon
NCI-H226 lung = system: NCI-H226 lung
UACC-62 melanoma = system: UACC-62 melanoma
HL-60(TB) leukemia = system: HL-60(TB) leukemia
RPMI-8226 leukemia = system: RPMI-8226 leukemia

NC(C(F)(F)F)(C(F)(F)F)P(=O)(c1ccccc1)c1ccccc1
TGI (OVCAR-5 ovarian): > 100 µM
TGI (IGROV1 ovarian): > 100 µM
TGI (A549 NSCLC): > 100 µM
TGI (K-562 leukemia): > 100 µM
TGI (RXF 393 renal): > 100 µM
TGI (NCI-H460 lung): > 100 µM
TGI (786-0 renal): > 100 µM
TGI (SW-620 colon): > 100 µM
TGI (NCI-H226 lung): > 100 µM
TGI (UACC-62 melanoma): > 100 µM
TGI (HL-60(TB) leukemia): > 100 µM
TGI (RPMI-8226 leukemia): > 100 µM

Cn1cc2c(=O)n3ncn(-c4ccc(Br)cc4)c3nc2n1
TGI (OVCAR-5 ovarian): > 100 µM
TGI (IGROV1 ovarian): > 100 µM
TGI (A549 NSCLC): > 100 µM
TGI (K-562 leukemia): > 100 µM
TGI (RXF 393 renal): > 100 µM
TGI (NCI-H460 lung): > 100 µM
TGI (786-0 renal): > 100 µM
TGI (SW-620 colon): > 100 µM
TGI (NCI-H226 lung): > 100 µM
TGI (UACC-62 melanoma): > 100 µM
TGI (HL-60(TB) leukemia): > 100 µM
TGI (RPMI-8226 leukemia): > 100 µM

COc1ccc(C2SC(N)=Nc3c2c(C)nn3C(=O)c2ccc(Cl)cc2)cc1 (stereo not given)
TGI (OVCAR-5 ovarian): > 10 µM
TGI (IGROV1 ovarian): > 10 µM
TGI (A549 NSCLC): > 10 µM
TGI (K-562 leukemia): > 10 µM
TGI (RXF 393 renal): > 10 µM
TGI (NCI-H460 lung): > 10 µM
TGI (786-0 renal): > 10 µM
TGI (SW-620 colon): > 10 µM
TGI (NCI-H226 lung): > 10 µM
TGI (UACC-62 melanoma): > 10 µM
TGI (HL-60(TB) leukemia): > 10 µM
TGI (RPMI-8226 leukemia): > 10 µM

CC1(C)CCCCCCCCCC(C)(CCCO)C1=O (stereo not given)
TGI (OVCAR-5 ovarian): 28.8 µM
TGI (IGROV1 ovarian): 31.4 µM
TGI (A549 NSCLC): 28.8 µM
TGI (K-562 leukemia): 73.7 µM
TGI (RXF 393 renal): 34.4 µM
TGI (NCI-H460 lung): 33.6 µM
TGI (786-0 renal): 30.7 µM
TGI (SW-620 colon): 34.1 µM
TGI (NCI-H226 lung): 31 µM
TGI (UACC-62 melanoma): 32.4 µM
TGI (HL-60(TB) leukemia): 45 µM
TGI (RPMI-8226 leukemia): 84.8 µM

COC(=O)C(/C(=N/N)C(=O)Nc1cc(Cl)c(Cl)cc1Cl)c1nc2ccc(Cl)cc2[nH]c1=O (stereo not given)
TGI (OVCAR-5 ovarian): > 100 µM
TGI (IGROV1 ovarian): > 100 µM
TGI (A549 NSCLC): > 100 µM
TGI (K-562 leukemia): > 100 µM
TGI (RXF 393 renal): > 100 µM
TGI (NCI-H460 lung): > 100 µM
TGI (786-0 renal): > 100 µM
TGI (SW-620 colon): > 100 µM
TGI (NCI-H226 lung): > 100 µM
TGI (UACC-62 melanoma): > 100 µM
TGI (HL-60(TB) leukemia): > 100 µM
TGI (RPMI-8226 leukemia): > 100 µM

COc1ccc(Nc2nc(N)c(C(=O)c3ccc(OC)cc3)s2)cc1
TGI (OVCAR-5 ovarian): > 100 µM
TGI (IGROV1 ovarian): 32 µM
TGI (A549 NSCLC): > 44.5 µM
TGI (K-562 leukemia): > 35.8 µM
TGI (RXF 393 renal): 4.55 µM
TGI (NCI-H460 lung): > 54.8 µM
TGI (786-0 renal): > 41.9 µM
TGI (SW-620 colon): > 37.5 µM
TGI (NCI-H226 lung): 75.8 µM
TGI (UACC-62 melanoma): > 100 µM
TGI (HL-60(TB) leukemia): 0.802 µM
TGI (RPMI-8226 leukemia): 0.659 µM

COC(=O)/C(C#N)=C1\NC(=O)CC(c2ccccc2)C1C#N (stereo not given)
TGI (OVCAR-5 ovarian): > 100 µM
TGI (IGROV1 ovarian): > 100 µM
TGI (A549 NSCLC): > 100 µM
TGI (K-562 leukemia): > 100 µM
TGI (RXF 393 renal): > 100 µM
TGI (NCI-H460 lung): > 100 µM
TGI (786-0 renal): > 100 µM
TGI (SW-620 colon): > 100 µM
TGI (NCI-H226 lung): > 100 µM
TGI (UACC-62 melanoma): > 100 µM
TGI (HL-60(TB) leukemia): > 100 µM
TGI (RPMI-8226 leukemia): > 100 µM

Cc1ccc(S(=O)(=O)[N-]C2C(=O)c3ccccc3C(=O)C2[n+]2cccc(C(N)=O)c2)cc1 (stereo not given)
TGI (OVCAR-5 ovarian): > 100 µM
TGI (IGROV1 ovarian): > 100 µM
TGI (A549 NSCLC): > 100 µM
TGI (K-562 leukemia): > 100 µM
TGI (RXF 393 renal): > 100 µM
TGI (NCI-H460 lung): > 100 µM
TGI (786-0 renal): > 100 µM
TGI (SW-620 colon): > 100 µM
TGI (NCI-H226 lung): > 100 µM
TGI (UACC-62 melanoma): > 100 µM
TGI (HL-60(TB) leukemia): > 100 µM
TGI (RPMI-8226 leukemia): > 100 µM

COc1cc(/C=C2/SC(c3ccccc3)N(c3ccc(Cl)cc3)C2=O)cc(OC)c1OC (stereo not given)
TGI (OVCAR-5 ovarian): > 100 µM
TGI (IGROV1 ovarian): > 100 µM
TGI (A549 NSCLC): > 100 µM
TGI (K-562 leukemia): > 100 µM
TGI (RXF 393 renal): > 100 µM
TGI (NCI-H460 lung): > 100 µM
TGI (786-0 renal): > 100 µM
TGI (SW-620 colon): > 100 µM
TGI (NCI-H226 lung): > 100 µM
TGI (UACC-62 melanoma): > 100 µM
TGI (HL-60(TB) leukemia): > 100 µM
TGI (RPMI-8226 leukemia): > 100 µM

c1ccc([C@@H]2N[C@@]3(CO[Si](c4ccccc4)(c4ccccc4)c4ccccc4)CC[C@H]4CN[C@@H]2[C@H]43)cc1
TGI (OVCAR-5 ovarian): 31 µM
TGI (IGROV1 ovarian): 26.7 µM
TGI (A549 NSCLC): 26.1 µM
TGI (K-562 leukemia): > 100 µM
TGI (RXF 393 renal): 16.9 µM
TGI (NCI-H460 lung): 25 µM
TGI (786-0 renal): 25.9 µM
TGI (SW-620 colon): 11.7 µM
TGI (NCI-H226 lung): 27.5 µM
TGI (UACC-62 melanoma): 28.2 µM
TGI (HL-60(TB) leukemia): 21.3 µM
TGI (RPMI-8226 leukemia): 13.8 µM

CC(NC(=O)/C(C#N)=C/c1ccc2[nH]ccc2c1)c1ccccc1 (stereo not given)
TGI (OVCAR-5 ovarian): 37.3 µM
TGI (IGROV1 ovarian): 33.1 µM
TGI (A549 NSCLC): 55.4 µM
TGI (K-562 leukemia): > 77.9 µM
TGI (RXF 393 renal): 34.5 µM
TGI (NCI-H460 lung): 34.9 µM
TGI (786-0 renal): 31.8 µM
TGI (SW-620 colon): 33 µM
TGI (NCI-H226 lung): 53.8 µM
TGI (UACC-62 melanoma): 31.8 µM
TGI (HL-60(TB) leukemia): 54.8 µM
TGI (RPMI-8226 leukemia): > 73.1 µM

CC(=O)NCC1(c2ccccc2)CCN(CC2COc3ccccc3O2)CC1 (stereo not given)
TGI (OVCAR-5 ovarian): > 100 µM
TGI (IGROV1 ovarian): > 100 µM
TGI (A549 NSCLC): > 100 µM
TGI (K-562 leukemia): > 100 µM
TGI (RXF 393 renal): > 100 µM
TGI (NCI-H460 lung): > 100 µM
TGI (786-0 renal): > 100 µM
TGI (SW-620 colon): > 100 µM
TGI (NCI-H226 lung): > 100 µM
TGI (UACC-62 melanoma): > 100 µM
TGI (HL-60(TB) leukemia): > 100 µM
TGI (RPMI-8226 leukemia): > 100 µM

CC(C)C[C@H](NC(=O)CCc1ccccc1)B(O)O
TGI (OVCAR-5 ovarian): 40.2 µM
TGI (IGROV1 ovarian): > 100 µM
TGI (A549 NSCLC): > 100 µM
TGI (K-562 leukemia): 62.7 µM
TGI (RXF 393 renal): 19.1 µM
TGI (NCI-H460 lung): 52.9 µM
TGI (786-0 renal): 57.5 µM
TGI (SW-620 colon): 19.1 µM
TGI (NCI-H226 lung): 4.8 µM
TGI (UACC-62 melanoma): 72.9 µM
TGI (HL-60(TB) leukemia): 8.8 µM
TGI (RPMI-8226 leukemia): 6.11 µM

O=C1C(Cl)C(c2ccc(Cl)cc2)N1n1cnc2ccccc2c1=O (stereo not given)
TGI (OVCAR-5 ovarian): > 100 µM
TGI (IGROV1 ovarian): > 100 µM
TGI (A549 NSCLC): > 100 µM
TGI (K-562 leukemia): > 100 µM
TGI (RXF 393 renal): > 100 µM
TGI (NCI-H460 lung): > 100 µM
TGI (786-0 renal): > 100 µM
TGI (SW-620 colon): > 100 µM
TGI (NCI-H226 lung): > 100 µM
TGI (UACC-62 melanoma): > 100 µM
TGI (HL-60(TB) leukemia): > 100 µM
TGI (RPMI-8226 leukemia): > 100 µM

CC(=O)OC1OC2C(NC(=O)OC(C)(C)C)C1CC2(OCc1ccccc1)OCc1ccccc1 (stereo not given)
TGI (OVCAR-5 ovarian): 82.4 µM
TGI (IGROV1 ovarian): 90.3 µM
TGI (A549 NSCLC): > 100 µM
TGI (K-562 leukemia): > 94.8 µM
TGI (RXF 393 renal): 32.2 µM
TGI (NCI-H460 lung): > 100 µM
TGI (786-0 renal): 56.8 µM
TGI (SW-620 colon): > 100 µM
TGI (NCI-H226 lung): 56.5 µM
TGI (UACC-62 melanoma): 42.2 µM
TGI (HL-60(TB) leukemia): 35.2 µM
TGI (RPMI-8226 leukemia): 43.3 µM
